Test [1] has as its target Potassium channel subfamily K member 3 (Rattus norvegicus, UniProt O54912). In words: SAR analysis for the identification of selective inhibitors of the two-pore domain potassium channel TASK1(KCNK3):Automated Electrophysiology. The format is functional.
Test [2] addresses T1, Potassium channel subfamily K member 9 (Homo sapiens, UniProt Q9NPC2). Description: TASK3 (KCNK9) channel inhibitors, thallium flux, SAR follow-up, selectivity assay for TASK1 inhibitor project, cell-based, FluxOR thallium flux, concentration-response (AID 652211).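 Also: potency is for inhibitors of the channel.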 Format: functional.
In test [3] the target is T1, Potassium channel subfamily K member 9. In words: KCNK9 (TASK3) current inhibition by patch clamp, SAR follow-up, selectivity assay for TASK1 (KCNK3) inhibitor project, cell-based, automated electrophysiology (AID 652210). The format is functional.
Test [4] in a line: Late stage counterscreen for inhibitors of Trypanosoma brucei methionyl tRNA synthetase (MetRS): Luminescence-based cell-based high throughput dose response assay to identify compounds that are cytotoxic to Jurkat human T lymphocyte cells. Format: functional.
Test [5] has as its target T2, Methionyl-tRNA synthetase, putative (Trypanosoma brucei brucei, UniProt Q38C91).
T2 sequence (Q38C91 whole entry): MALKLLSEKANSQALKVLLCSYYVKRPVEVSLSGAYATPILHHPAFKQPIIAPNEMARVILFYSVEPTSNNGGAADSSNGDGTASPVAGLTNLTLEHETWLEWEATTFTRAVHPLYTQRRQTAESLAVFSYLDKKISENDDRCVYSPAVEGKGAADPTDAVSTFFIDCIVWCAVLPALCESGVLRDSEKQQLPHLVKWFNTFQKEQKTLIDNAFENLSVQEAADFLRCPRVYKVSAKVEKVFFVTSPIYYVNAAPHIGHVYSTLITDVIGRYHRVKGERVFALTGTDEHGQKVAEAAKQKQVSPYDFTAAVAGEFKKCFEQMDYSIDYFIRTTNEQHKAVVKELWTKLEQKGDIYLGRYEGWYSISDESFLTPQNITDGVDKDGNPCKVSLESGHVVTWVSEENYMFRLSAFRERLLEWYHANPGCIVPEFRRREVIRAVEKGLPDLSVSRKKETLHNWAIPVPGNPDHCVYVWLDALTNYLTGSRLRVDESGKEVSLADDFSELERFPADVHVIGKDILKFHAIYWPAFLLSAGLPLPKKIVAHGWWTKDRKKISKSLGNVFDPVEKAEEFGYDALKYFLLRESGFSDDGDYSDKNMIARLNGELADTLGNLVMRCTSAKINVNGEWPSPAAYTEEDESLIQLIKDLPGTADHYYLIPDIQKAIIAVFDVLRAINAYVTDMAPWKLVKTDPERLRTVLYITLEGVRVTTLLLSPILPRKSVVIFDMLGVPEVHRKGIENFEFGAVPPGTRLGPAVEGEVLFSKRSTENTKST
The format is functional, Trypanosoma brucei brucei strain 927/4 GUTat10.1.

For test [6], the target named is T2, Methionyl-tRNA synthetase, putative. The format is functional, Trypanosoma brucei brucei strain 927/4 GUTat10.1. This is another data set of the same source.
The nature of test [7]: Counterscreen for inhibitors of Trypanosoma brucei methionyl tRNA synthetase (MetRS): Luminescence-based cell-based high throughput dose response assay to identify compounds that are cytotoxic to Jurkat human T lymphocyte cells. The format is functional. For orientation: Counterscreens check selectivity or assay interference.
Test [8] addresses NAD-dependent protein deacylase sirtuin-5, mitochondrial (Homo sapiens, UniProt Q9NXA8). In words: SIRT5 desuccinylase inhibitors, dose response, biochemical, fluorescence imaging, cherry-pick, set 5 (AID 720591).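 Also: desuccinylation of succinyl peptide AMC substrate read as fluorescence after trypsin release; potency of inhibitors that lower fluorescence and may act on trypsin instead.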
Test [9] is described as follows: Luminescence Cell-Based Dose Confirmation HTS to Identify Activators of 5'UTR Stem-Loop Driven Alpha-Synuclein mRNA Translation in H4 Neuroglioblastoma Cells. [Related pubchem assays: 1829 (Project Summary), 1814 (Primary HTS)]. Format: functional.
A short description of test [10]: Luminescence Cell-Based Dose Response HTS to Identify Activators of Luciferase Translation or Activity in H4 […] Cells. [Related pubchem assays: 1829 (Project Summary), 1814 (Primary HTS)]. Format: functional.
For test [11], the system named is H4. In words: Luminescence Cell-Based Dose Response HTS to Identify Activators of 5'UTR Stem-Loop Driven Prion Protein mRNA Translation in H4 Neuroglioblastoma Cells. [Related pubchem assays: 1829 (Project Summary), 1814 (Primary HTS)]. The format is functional. Conditions: Homo sapiens.
Test [12] has as its target Transthyretin (Homo sapiens, UniProt P02766). In words: Luminescence-based cell-based high throughput dose response assay to identify activators of Transthyretin (TTR) transcription. The format is functional.
Test [13] has as its target T3, Estrogen receptor beta (Homo sapiens, UniProt Q92731). Description: ERβ–SRC-3 coactivator interaction inhibitors, confirmation, orthogonal assay, biochemical, ELISA, streptavidin-HRP readout (AID 1060). For orientation: ELISA stands for enzyme-linked immunosorbent assay.
Test [14] deals with E3 ubiquitin-protein ligase UHRF1 (Homo sapiens, UniProt Q96T88). In words: Counterscreen for inhibitors of 5-meCpG-binding domain protein 2 (MBD2): TRFRET-based biochemical high throughput dose response assay to identify inhibitors of binding of ubiquitin-like with PHD and ring finger domains 1 (UHRF1) to methylated oligonucleotide.
E3 ubiquitin-protein ligase UHRF1, sequence (Q96T88 whole entry, the tested form may be a part): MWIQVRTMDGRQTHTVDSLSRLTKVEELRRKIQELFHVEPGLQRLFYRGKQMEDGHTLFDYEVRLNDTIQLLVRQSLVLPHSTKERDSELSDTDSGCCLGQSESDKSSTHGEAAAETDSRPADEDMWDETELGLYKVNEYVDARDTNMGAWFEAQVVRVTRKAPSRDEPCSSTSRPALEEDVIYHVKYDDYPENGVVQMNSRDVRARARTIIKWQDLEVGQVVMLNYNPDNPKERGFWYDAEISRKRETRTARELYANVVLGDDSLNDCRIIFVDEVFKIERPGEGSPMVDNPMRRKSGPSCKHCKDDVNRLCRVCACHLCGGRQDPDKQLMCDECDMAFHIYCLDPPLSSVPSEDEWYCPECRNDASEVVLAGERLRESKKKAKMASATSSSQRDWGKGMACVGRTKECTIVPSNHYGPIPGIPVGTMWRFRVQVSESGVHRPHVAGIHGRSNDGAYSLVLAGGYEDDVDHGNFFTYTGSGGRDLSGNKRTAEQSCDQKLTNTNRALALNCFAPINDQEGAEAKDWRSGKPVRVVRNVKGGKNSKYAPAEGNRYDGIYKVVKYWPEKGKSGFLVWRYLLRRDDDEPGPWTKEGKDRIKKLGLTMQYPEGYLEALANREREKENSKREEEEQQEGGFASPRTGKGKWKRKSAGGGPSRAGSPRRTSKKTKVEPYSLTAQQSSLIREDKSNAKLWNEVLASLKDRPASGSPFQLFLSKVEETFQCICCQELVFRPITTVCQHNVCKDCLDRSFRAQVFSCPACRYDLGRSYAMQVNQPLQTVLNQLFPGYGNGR
Test [15] concerns the target T3, Estrogen receptor beta.
The nature of test [16]: CellTiter-Glo luminescent dose response of DLD-1 viability loss (AID 1117352). Format: functional. For orientation: In ATP-based viability assays light output follows the ATP content of the culture.
Test [17] can be described thus: cytotoxicity toward HT-29 cells – cell-based, CellTiter-Glo luminescence, IC50, dose response (AID 1117330). Format: functional.
Test [18] is described as follows: HCT116 cell viability decrease, GSK3B pretreatment – CellTiter-Glo, IC50, dose response (AID 1117339). Conditions: HCT-116. The format is functional.
The nature of test [19]: SNU-C1 cell viability reduction, dose response, CellTiter-Glo luminescence (AID 1117323). Format: functional, cell-based.
The nature of test [20]: cytotoxicity toward HCT116 cells – cell-based, CellTiter-Glo luminescence, IC50, dose response (AID 1117332). Format: functional. Conditions: HCT-116.
The nature of test [21]: Concentration-dependent survival of SW480 colon cancer line, luminescence detection with CellTiter-Glo, half-maximal inhibitory concentration (AID 1117338). The format is functional.
The nature of test [22]: RKO cell viability reduction, dose response, CellTiter-Glo luminescence (AID 1117322). The format is functional.
The nature of test [23]: cytotoxicity toward Colo320 cells – cell-based, CellTiter-Glo luminescence, IC50, dose response (AID 1117334). Format: functional. Conditions: COLO 320.
For test [24], the target named is T4, Oxysterols receptor LXR-beta (Homo sapiens, UniProt P55055).
T4 sequence (P55055 whole entry): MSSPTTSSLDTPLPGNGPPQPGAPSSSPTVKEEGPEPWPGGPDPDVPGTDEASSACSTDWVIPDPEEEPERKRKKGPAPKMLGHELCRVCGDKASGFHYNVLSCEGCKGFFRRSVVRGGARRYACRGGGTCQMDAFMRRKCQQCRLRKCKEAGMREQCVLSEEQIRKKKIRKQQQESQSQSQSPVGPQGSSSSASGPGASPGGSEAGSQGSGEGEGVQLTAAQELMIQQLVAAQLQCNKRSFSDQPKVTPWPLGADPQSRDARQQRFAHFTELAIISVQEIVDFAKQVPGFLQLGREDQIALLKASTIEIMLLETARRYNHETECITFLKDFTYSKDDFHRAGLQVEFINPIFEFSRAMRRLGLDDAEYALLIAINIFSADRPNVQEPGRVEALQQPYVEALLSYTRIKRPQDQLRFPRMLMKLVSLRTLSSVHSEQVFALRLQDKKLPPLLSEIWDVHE
Format: functional, cell-based.

The nature of test [25]: cells.
Test [26] concerns the target T4, Oxysterols receptor LXR-beta. In words: LXR agonists, Gal4 luciferase reporter, dose response, counter-screen for ssDAF-12 agonist project, cell-based, luminescence, HEK293, S. stercoralis campaign (AID 720737). The format is functional. Conditions: read-out: IC50 (the source's name).
Test [27] is described as follows: Luminescence-based cell-based high throughput dose response assay to identify activators of the DAF-12 from the parasite S. stercoralis (ssDAF-12). The format is functional.

Structures are written as SMILES. Active and inactive are the calls of the source. Where only a bound is given, the exact number is not on record here.

T3 sequence (Q92731 whole entry, the tested form may be a part): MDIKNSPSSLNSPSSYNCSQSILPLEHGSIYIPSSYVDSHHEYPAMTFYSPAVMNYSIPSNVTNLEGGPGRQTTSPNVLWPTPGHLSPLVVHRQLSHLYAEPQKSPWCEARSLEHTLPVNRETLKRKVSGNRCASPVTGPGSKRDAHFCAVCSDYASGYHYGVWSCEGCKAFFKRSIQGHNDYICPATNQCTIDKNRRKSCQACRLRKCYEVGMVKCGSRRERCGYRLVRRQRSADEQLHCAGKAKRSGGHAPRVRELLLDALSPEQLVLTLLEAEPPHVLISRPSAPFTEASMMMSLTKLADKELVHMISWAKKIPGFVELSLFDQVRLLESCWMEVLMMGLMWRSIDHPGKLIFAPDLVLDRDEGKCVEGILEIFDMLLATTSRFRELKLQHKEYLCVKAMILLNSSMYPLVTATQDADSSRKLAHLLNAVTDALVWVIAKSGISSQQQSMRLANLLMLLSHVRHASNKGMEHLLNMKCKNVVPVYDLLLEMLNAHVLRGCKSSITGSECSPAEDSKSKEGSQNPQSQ
T1 sequence (Q9NPC2 whole entry): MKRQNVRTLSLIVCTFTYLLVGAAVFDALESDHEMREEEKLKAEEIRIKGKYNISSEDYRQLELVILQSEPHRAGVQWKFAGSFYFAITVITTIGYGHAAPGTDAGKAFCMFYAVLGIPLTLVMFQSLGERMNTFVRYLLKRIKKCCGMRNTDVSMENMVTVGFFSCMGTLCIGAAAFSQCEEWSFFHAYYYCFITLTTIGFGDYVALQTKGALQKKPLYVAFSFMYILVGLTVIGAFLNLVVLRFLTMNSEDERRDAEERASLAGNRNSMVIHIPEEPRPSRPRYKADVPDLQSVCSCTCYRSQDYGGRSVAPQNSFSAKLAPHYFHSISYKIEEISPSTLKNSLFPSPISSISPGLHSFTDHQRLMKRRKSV
NAD-dependent protein deacylase sirtuin-5, mitochondrial, sequence (Q9NXA8 whole entry): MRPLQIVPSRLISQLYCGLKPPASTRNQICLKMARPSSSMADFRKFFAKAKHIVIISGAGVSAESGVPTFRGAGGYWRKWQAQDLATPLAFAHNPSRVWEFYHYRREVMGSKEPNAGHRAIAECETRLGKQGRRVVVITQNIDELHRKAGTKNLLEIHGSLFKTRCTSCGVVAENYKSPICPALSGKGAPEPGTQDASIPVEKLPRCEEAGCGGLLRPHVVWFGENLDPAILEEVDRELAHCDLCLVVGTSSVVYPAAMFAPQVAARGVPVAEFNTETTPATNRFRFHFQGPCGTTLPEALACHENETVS
Potassium channel subfamily K member 3, sequence (O54912 whole entry, the tested form may be a part): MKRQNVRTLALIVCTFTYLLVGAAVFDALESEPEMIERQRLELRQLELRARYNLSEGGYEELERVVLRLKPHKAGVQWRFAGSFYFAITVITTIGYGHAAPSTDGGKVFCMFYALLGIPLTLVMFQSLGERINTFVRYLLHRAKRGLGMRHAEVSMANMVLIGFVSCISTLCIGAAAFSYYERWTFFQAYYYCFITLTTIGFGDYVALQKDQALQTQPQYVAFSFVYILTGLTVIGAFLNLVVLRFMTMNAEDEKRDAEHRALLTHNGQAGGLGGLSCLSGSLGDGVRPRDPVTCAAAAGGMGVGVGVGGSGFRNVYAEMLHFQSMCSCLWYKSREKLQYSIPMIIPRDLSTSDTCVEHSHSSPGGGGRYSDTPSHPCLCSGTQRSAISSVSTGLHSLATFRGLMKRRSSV

In general, IC50 refers to the concentration that gives 50% inhibition. Regarding `COc1ccccc1C(=O)Nc1cccc(NC(=O)c2cccc(C)c2)c1`, the values for the IC50 in [1], in [2] and in test [3] were 0.012 µM (active), 0.26 µM (active) and 0.48 µM (active), respectively.

Take `CC(C)(C)[C@H]1C=C(C(=O)NCc2nc3ccccc3[nH]2)O[C@@H](OCc2ccc(CO)cc2)C1`: the IC50 in test [4] was 77 µM (inactive); in [5], 3.78 µM (active); in test [6] it was 1.99 µM (active); in test [7], 44.2 µM (inactive).

For orientation: AC50 means the concentration at which the activity in the assay is half-maximal. `O=C(O)CCNC(=O)c1ccc(NC(=O)Cc2ccc(Cl)cc2)cc1`: the concentration at half-maximal activity (AC50) in [8] is 18.8 µM (active).

Consider `COc1cccc(-c2csc(NC(=O)C3CC3)n2)c1`, for which the EC50 in test [9] was 94 µM (active); in test [10], 33.5 µM (active); in [11] it was > 120 µM (not active); in [12], > 167 µM (inactive).

With `Cc1onc(-c2ccccc2Cl)c1C(=O)NCc1ccco1`, the figures for the IC50 in test [13], in test [14] and in test [15] were > 50 µM (not active), > 43.8 µM (inactive) and > 50 µM (not active), respectively.

Regarding `C/C(=N\O)[C@@H](C)NCC(C)(C)CN[C@H](C)/C(C)=N/O`, the IC50 in test [16], in test [17], in test [18], in [19], in [20] and in test [21] was > 20 µM (inactive) each time. Besides, the IC50 in test [22] and in [23] was > 20 µM (inactive) in each case.

Turning to `COc1cccc(-c2nc3n(n2)CCc2ccccc2-3)c1`, the EC50 in test [24] and in [25] was > 67.5 µM (inactive) each time.

As to `C[C@@H](c1ccccc1)N1C[C@@H](COCc2ccccc2)Oc2cc(N3CCC[C@H]3C(N)=O)ccc2S1(=O)=O`, the EC50 in [26] was > 67.5 µM (inactive). Moreover, the IC50 in test [27] was > 67.5 µM (inactive).

The record behind these values is ChEMBL document CHEMBL1201862, “PubChem BioAssay data set” (2004).
